We go through two molecules from ChEMBL document CHEMBL1201862, “PubChem BioAssay data set” (2004).

One assay has as its system Streptococcus. Briefly: Group A Streptococcus viability loss, dose response, counter-screen for streptokinase expression inhibitor project, luminescence, BacTiterGlo (AID 1915).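 Further: potency for reduction of bacterial viability or growth.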 The format is functional, organism-based.
For another assay, the target named is T1, Exodeoxyribonuclease V (Escherichia coli (strain K12), UniProt P04993+P07648+P08394).
T1 sequence (P04993 whole entry): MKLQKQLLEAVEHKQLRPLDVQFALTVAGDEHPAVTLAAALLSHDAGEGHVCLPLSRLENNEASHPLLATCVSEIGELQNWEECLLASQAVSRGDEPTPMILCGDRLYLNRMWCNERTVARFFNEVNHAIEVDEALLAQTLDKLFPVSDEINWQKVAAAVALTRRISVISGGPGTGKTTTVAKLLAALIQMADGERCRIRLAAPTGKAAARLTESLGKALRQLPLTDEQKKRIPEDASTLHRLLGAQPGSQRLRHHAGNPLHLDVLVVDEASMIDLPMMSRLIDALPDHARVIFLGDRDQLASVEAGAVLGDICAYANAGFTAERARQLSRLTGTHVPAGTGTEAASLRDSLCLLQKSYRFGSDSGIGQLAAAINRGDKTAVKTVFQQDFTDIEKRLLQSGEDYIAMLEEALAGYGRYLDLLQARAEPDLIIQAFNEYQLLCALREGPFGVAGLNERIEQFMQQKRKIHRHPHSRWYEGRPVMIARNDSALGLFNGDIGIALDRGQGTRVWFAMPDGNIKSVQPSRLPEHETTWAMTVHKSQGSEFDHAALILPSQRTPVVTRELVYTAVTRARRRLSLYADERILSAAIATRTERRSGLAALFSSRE
T1 sequence (P07648 whole entry): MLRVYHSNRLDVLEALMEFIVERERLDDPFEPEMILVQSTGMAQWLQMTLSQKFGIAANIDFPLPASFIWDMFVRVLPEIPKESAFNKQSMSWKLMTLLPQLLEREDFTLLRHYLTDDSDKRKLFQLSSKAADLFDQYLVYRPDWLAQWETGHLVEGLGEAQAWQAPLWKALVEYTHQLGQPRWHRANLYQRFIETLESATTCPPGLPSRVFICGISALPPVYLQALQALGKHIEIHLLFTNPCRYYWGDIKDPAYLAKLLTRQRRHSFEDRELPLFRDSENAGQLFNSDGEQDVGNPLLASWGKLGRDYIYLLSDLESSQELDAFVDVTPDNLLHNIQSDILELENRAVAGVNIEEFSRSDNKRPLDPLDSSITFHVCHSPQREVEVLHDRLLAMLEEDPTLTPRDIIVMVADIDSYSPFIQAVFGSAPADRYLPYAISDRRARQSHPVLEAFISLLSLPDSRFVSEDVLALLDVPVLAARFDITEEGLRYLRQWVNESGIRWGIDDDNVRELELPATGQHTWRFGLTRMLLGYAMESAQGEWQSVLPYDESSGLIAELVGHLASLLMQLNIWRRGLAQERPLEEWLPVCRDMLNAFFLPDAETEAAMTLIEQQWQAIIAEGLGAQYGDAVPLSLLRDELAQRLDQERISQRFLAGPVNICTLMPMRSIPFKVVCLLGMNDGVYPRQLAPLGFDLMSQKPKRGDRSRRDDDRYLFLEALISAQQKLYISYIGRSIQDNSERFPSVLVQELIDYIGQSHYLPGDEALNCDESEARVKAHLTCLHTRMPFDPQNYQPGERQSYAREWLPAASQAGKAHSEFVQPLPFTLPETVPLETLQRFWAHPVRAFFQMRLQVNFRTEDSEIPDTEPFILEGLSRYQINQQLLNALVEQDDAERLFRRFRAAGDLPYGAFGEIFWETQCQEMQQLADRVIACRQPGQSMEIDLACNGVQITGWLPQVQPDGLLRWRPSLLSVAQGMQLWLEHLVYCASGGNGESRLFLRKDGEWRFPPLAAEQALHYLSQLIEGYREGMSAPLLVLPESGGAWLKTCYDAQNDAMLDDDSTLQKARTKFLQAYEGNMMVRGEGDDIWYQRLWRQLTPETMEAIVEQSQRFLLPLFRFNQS
T1 sequence (P08394 whole entry): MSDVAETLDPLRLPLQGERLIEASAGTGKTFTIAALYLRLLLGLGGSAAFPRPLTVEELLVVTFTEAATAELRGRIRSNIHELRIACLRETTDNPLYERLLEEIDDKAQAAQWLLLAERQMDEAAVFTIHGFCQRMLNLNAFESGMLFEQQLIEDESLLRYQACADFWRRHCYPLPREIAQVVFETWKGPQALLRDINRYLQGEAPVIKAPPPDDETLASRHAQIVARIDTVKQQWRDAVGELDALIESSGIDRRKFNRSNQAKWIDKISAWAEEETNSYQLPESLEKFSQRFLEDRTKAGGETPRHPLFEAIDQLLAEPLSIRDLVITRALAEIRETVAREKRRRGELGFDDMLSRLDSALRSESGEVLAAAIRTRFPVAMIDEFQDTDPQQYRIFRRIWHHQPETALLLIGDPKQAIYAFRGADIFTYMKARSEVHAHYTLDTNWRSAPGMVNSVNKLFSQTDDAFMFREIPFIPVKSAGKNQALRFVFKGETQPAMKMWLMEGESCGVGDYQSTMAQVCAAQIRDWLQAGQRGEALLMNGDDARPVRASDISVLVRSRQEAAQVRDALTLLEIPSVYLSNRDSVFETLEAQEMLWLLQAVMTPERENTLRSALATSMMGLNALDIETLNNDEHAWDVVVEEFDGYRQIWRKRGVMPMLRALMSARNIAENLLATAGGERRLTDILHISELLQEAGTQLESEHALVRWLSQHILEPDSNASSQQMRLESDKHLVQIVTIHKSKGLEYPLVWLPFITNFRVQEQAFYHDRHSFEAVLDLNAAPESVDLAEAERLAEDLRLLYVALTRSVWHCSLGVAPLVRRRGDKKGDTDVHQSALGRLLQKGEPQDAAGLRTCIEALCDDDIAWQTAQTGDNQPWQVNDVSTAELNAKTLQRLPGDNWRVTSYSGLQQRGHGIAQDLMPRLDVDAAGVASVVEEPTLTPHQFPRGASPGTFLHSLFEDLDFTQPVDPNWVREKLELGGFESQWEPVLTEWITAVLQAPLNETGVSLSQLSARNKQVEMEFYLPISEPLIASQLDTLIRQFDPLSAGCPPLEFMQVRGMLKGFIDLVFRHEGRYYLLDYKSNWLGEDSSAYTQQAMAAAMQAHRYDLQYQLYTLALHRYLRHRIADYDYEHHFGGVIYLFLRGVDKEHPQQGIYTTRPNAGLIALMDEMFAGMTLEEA
As to the kind of experiment: E. coli RecBCD inhibitors, dose response, counter-screen for AddAB inhibitor project, absorbance, V66 E. coli, mutant T4 phage (AID 492957). In kind it is functional, cell-based, Escherichia coli str. K-12 substr. MG1655. (In general: The purpose of a counterscreen is to sort out artefacts and off-target activity.)

A short description of assay [1]: Counterscreen for AddAB inhibitors: absorbance-based bacterial cell-based high throughput dose response assay for inhibitors of bacterial viability. [Related pubchem assays (depositor defined):AID435030, AID449728, AID449731, AID488942, AID488955, AID488956]. The format is functional.
Assay [2] concerns the target Intestinal-type alkaline phosphatase (Homo sapiens, UniProt P09923). Briefly: inhibition of human intestinal alkaline phosphatase – biochemical, dose response (AID 488876). The format is functional.

Molecules are shown by their SMILES. Active and inactive are the calls of the source.

Intestinal-type alkaline phosphatase, sequence (P09923 whole entry): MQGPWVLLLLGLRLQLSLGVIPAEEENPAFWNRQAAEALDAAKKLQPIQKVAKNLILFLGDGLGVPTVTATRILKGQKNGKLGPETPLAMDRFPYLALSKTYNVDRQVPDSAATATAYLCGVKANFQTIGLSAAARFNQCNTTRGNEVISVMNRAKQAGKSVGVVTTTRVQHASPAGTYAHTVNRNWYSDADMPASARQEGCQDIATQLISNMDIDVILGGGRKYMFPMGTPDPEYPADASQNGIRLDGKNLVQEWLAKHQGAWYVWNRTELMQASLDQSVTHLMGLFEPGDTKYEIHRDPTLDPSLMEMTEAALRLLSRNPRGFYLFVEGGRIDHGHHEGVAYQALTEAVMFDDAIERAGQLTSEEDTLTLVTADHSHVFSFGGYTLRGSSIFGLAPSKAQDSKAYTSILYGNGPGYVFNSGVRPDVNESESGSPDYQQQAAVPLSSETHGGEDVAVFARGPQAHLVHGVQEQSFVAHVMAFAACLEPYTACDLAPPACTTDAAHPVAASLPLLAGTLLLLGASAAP

For the molecule `Cc1onc(-c2ccccc2)c1C(=O)NC(=S)NNC(=O)c1ccc(O)cc1O`, the concentration for a half-maximal effect (EC50) (in general, the midpoint of the concentration-response curve) in the assay on Streptococcus is 25.3 µM (active). Further, the IC50 (on Exodeoxyribonuclease V; in assay [1]) was > 39.5 µM (inactive) each time.
`O=C(N/N=C/c1ccc(O)cc1O)C(=O)N/N=C/c1ccc(O)cc1O`: the IC50 (as a rule, the concentration that inhibits the measured activity by half) on Exodeoxyribonuclease V is > 119 µM (inactive); in assay [1], > 119 µM (inactive); in assay [2], 51.3 µM (active).
